Data from patent publication EP4653003A1, “PHARMACEUTICAL COMPOSITION HAVING CERIUM COMPOUND CONTAINING TRIVALENT CERIUM AS ACTIVE INGREDIENT” (Applause Pharma Co., Ltd., priority 2023, dated 2024).

Assays:
[1] = system: adenine nephropathy model rats; assay: Uremic toxin lowering action by cerium chloride: indoxyl sulfate in whole blood by HPLC; type: in vivo; conditions: blood collected by dissection; feed of adenine combined with cerium chloride
Protocol: A solvent for precipitation (5.56 µmol/L 2-naphthalenesulfonic acid solution in acetonitrile) and a blood sample (whole blood) were mixed in a 1.5 mL polypropylene tube, the mixture was allowed to stand still at room temperature, and then centrifuged to cause solid-liquid separation, thereby obtaining a supernatant. A 10 mmol/L aqueous ammonium acetate solution was added to the thus obtained supernatant, and the mixture was centrifuged to obtain a supernatant. The operation above diluted the blood sample 50 times, with the final concentration of the thus-added 2-naphthalenesulfonic acid adjusted to 1 µmol/L.
Fig. 19 illustrates a diagram, with the indoxyl sulfate concentration in the blood sample collected by dissection plotted on the ordinate, and with the total mole amount of cerium contained in 100 g of feed plotted on the abscissa.

[2] = system: adenine nephropathy model rats; type: in vivo, Slc:Wistar rat (male)
Excerpt: • · Rat: Slc:Wistar rat (male) delivered at 12 weeks of age (Japan SLC, Inc.) • · Powder feed: AIN-93G powder feed (Funabashi Farm Co., Ltd.) • · Feed for laboratory animal: Labo MR Stock (Nosan Corporation) • · Adenine: (Tokyo Chemical Industry Co., Ltd.) • · Cerium oxide dispersion: Cerium oxide dispersion prepared in [Preparation of Cerium Oxide Dispersion]
• (i) Weighed was 250 g of a powder feed, which was then kneaded with a kitchen machine. • (ii) After kneaded with a kitchen machine for 3 minutes, the feed adhered on the wall surface was scraped off, and then kneaded again for 3 minutes. Approximately 100 mL of hot water was then added evenly. • (iii) The feed was once put together by hands, and further kneaded with the kitchen machine until it became homogeneous. • (iv) The thus kneaded feed was shaped into a rod through a sausage machine. • (v) The thus shaped feed was cut into a cylindrical shape approximately 2.5 cm in diameter and 1.5 cm in thickness. • (vi) The thus shaped cylindrical feed was dried at 38°C in an incubator for two days. • (vii) The feed was weighed to estimate a proportion of residual water content, and dried until the proportion drops to 10% or below. • (viii) The prepared feed was put in a zipper bag, and stored in a refrigerator.
A special feed was prepared by modifying step (ii) for the normal group feed, as described below. (ii) (Ade): While keeping the content under kneading, 0.625 g of adenine was added in small portions, the content was kneaded with a kitchen machine for 3 minutes, the feed adhered on the wall surface was scraped off, and the content was kneaded again for 3 minutes. Approximately 100 mL of hot water was then added evenly.
A special feed was prepared by modifying steps (i) and (ii) for (2) Adenine Group Feed, as described below. • (i) (Ade + Dispersion (A)): Weighed was 246.1 g of the powder feed, which was then kneaded with a kitchen machine. • (ii) (Ade + Dispersion (A)): While keeping the content under kneading, 0.625 g of adenine was added in small portions, the content was kneaded with the kitchen machine for 3 minutes, the feed adhered on the wall surface was scraped off, and the content was kneaded again for 3 minutes. Next, while keeping the content under kneading, 32.7 g of cerium oxide dispersion was added in small portions, the content was kneaded with the kitchen machine for 3 minutes, the feed adhered on the wall surface was scraped off, and the content was kneaded again for 3 minutes. Approximately 70 mL of hot water was then added evenly. […]

[3] = blood collected by dissection on Day 28, substance mixed in adenine feed, trend against content in 100 g feed

cerium(III) chloride heptahydrate [cerium chloride]
indoxyl sulfate concentration in whole blood [1]: declining tendency
blood urea nitrogen (BUN) [2, 3]: decline as the cerium chloride content in the feed increased
serum creatinine (CRE) [2, 3]: decline as the cerium chloride content in the feed increased
serum phosphorus (IP) [2, 3]: decline as the cerium chloride content in the feed increased
alanine aminotransferase (ALT) ([2]; rat, in vivo): equivalent to that in the normal group
